Experimental data as given in publication PMC12298629, “New Derivatives of Caracasine Acid with Anti-Leukemic Activity and Limited Effectiveness in Spheroid Cultures” (Pharmaceuticals, 2025).

What was measured:
[1] = test system: caspase 9; assay: Caspase 9 activity in lysed HCT116 cells from 2D and spheroids; type: cell-based, human; settings: HCT116 parental spheroids, 25 µM (cisplatin 15 μM), 12 h
Protocol: (§1) The assay was designed to evaluate the impact of various compounds on caspase activity using a standardized quantity of cell protein lysates after 12 h of incubation. The parental line HCT116 served as the basis for these experiments. Three distinct caspases were examined employing the fluorescence assay kits from Calbiochem (San Diego, CA, USA), specifically a fluorometric caspase-8 assay kit and a fluorimetric caspase-3 assay kit. Additionally, the fluorometric kit from Abcam was utilized to assess caspase-9 activity. Due to the variations in protocols for each caspase, separate plates were prepared for each assay, encompassing both two-dimensional (2D) cell cultures and spheroids. The compound concentrations were established at 25 µM, and assays were conducted in quintuplicate following a 12-h incubation period. The cells were harvested from the plates using the standard trypsin-EDTA solution (Merck Sigma Aldrich, Saint Louis, MO, USA), washed, and counted before lysis, as described in each kit. Cell processing adhered to the guidelines provided by the respective companies, and protein concentration was calculated and standardized using the standard BCA assay. Fluorescent readings were captured using the Enspire apparatus (Perkin-Elmer, MA, USA). Positive controls utilized included staurosporine at a concentration of 5 μM and cisplatin at 15 μM. The kits provided their own standards; however, to normalize all the readings between cultures, types, and treatments, the results were expressed as a percentage relative to the positive control, staurosporine, in 2D culture. […] A total of three separate assays were conducted for each caspase.

[2] = test system: BJ; assay: Cytotoxic MTS assay, BJ fibroblasts; type: cell-based; settings: human fibroblasts, 72 h, median of five assays
From the text: (§2) The cancer cell lines used in the cytotoxic assays were acquired from the American Tissue Culture Collection (ATCC) (Manassas, VA, USA) and maintained as described previously. The MRC-5 and BJ human fibroblasts were used as non-tumoral control cells. The (MRC-5 LD and BJ LD) are also human fibroblast cell lines resistant to doxorubicin. […] The Raji and Ramos cell lines correspond to B-cell leukemia. Other cells, such as U2OS, represent a child osteosarcoma, while HCT116 is a colorectal tumor cell line. (HCT116p53^−/−, Horizon Discovery Ltd., Cambridge, UK) is a similar cell line with its p53 gene knocked down, serving as a model of human cancer frequently associated with a poor prognosis. The cells were maintained in Nunc/corning 80 cm^2 plastic tissue culture flasks and cultured in a cell culture medium according to ATCC or Horizon recommendations (McCoy, DMEM/RPMI 1640 with 5 g/L glucose, 2 mM glutamine, 100 U/mL penicillin, […] streptomycin, 10% fetal calf serum, and NaHCO3). The compounds were freshly dissolved in DMSO. The final concentration of DMSO was 0.01% in the cell culture.
(§3) The in vitro cytotoxicity of compounds (1–7) was assessed using the standard 3-(4,5-dimethyl-thiazol-2yl)-5-(3-carboxymethoxyphenyl)-2-(sulfophenyl)-2H-tetrazolium (MTS). The assay was performed at the Institute of Molecular and Translational Medicine using a robotic platform (High-ResBiosolutions, Beverly, MA, USA). Cell suspensions were prepared and diluted according to the specific cell type and the expected target cell density (25,000–35,000 cells/mL, based on cell growth characteristics). An automatic pipettor (30 μL) was used to add cells into 384-well microtiter plates. All tested compounds were dissolved in 100% DMSO, and four-fold dilutions of the intended test concentrations were added in 0.15 μL aliquots at time zero to the microtiter plate wells by the echo acoustic non-contact liquid handler Echo550 (Labcyte, San Jose, CA, USA). The assays were accomplished in technical duplicates and at least three biological replicates. The cells were incubated with the tested compound for 72 h at 37 °C in a 5% CO2 atmosphere with 100% humidity. At the end of the incubation period, cells were assayed using the MTS test. Aliquots (5 μL) of the MTS stock solution were pipetted into each well and incubated for 1–4 h. After this incubation period, the optical density (OD) was measured at 490 nm using an Envision reader (PerkinElmer, Waltham, MA, USA). Tumor cell survival (TCS) was calculated using the following equation: TCS = (OD drug-exposed well/mean OD control wells) × 100%. The IC50 value, representing the concentration of the compound lethal to 50% of the tumor cells, was calculated from the corresponding dose-response curves using Dotmatics software (Updated version 2022, London, UK). After three days of incubation on the cancer cell lines and normal fibroblasts, the […] (IC50) were obtained. Five assays were performed for each cell line. The standard error of the assays was lower than 10%, as assessed by the triplicate assays.

[3] = test system: HCT116KO53; assay: Cytotoxic MTS assay, HCT116 p53 knockout 2D; type: cell-based; settings: 72 h, median of five assays
From the text: as §2, §3

[4] = test system: HCT116KO53 spheroids; assay: Spheroid viability assay (CellTiter-Glo 3D), HCT116 p53 KO spheroids; type: cell-based; settings: 72 h, 100 pM to 50 μM
Protocol: (§4) Spheroid culture aims to analyze the drug’s effect on complex structures resembling solid tumors. The spheroids were prepared using the specific nonadherent plates for spheroid formation (Nunc Sphera, Thermo Fisher, Waltham, MA, USA) according to the simple protocol outlined by the manufacturer. The cell lines HCT116 parental, HCT116KOTp53, A549, and U2OS were cultured at a density of 2500 cells per well using medium containing 10% fetal calf serum and antibiotics: McCoy’s 5A medium for HCT116, F-12K (Kaighn’s Modified) for A549, and Dulbecco’s Modified Eagle Medium (DMEM). The cells were grown in culture for 48 h as recommended by the manufacturer and as described by Das et al. and Muñoz-Garcia et al..
(§5) The cell viability of the treated spheroids was assessed using the kit CellTiter-Glo 3D (Promega Corporation, Madison, WI, USA). The kit is designed to measure ATP as an indicator of viability, generating a luminescent readout that is more sensitive than colorimetric or fluorescence-based methods. The spheroids were cultivated with compounds at concentrations ranging from 100 pM to 50 μM in triplicate for 72 h, and the luminescence was measured using the Enspire apparatus (PerkinElmer). A standard curve was performed for each analysis as recommended by the manufacturer.

[5] = test system: MRC-5; assay: Cytotoxic MTS assay, MRC-5 fibroblasts; type: cell-based; settings: 72 h, median of five assays
From the text: as §2, §3

[6] = test system: MRC-5 LD; assay: Cytotoxic MTS assay, MRC-5 LD fibroblasts (doxorubicin-resistant); type: cell-based; settings: 72 h, median of five assays
From the text: as §2, §3

[7] = test system: mixed spheroids of MRC-5 fibroblasts with HCT116 or HCT116 p53 KO cells; assay: Mixed spheroid viability assay; type: cell-based, human; settings: mixed spheroids of fibroblasts and tumor cells
Protocol: as §5, with “Mixed spheroids were made by mixing MRC-5 fibroblasts with HCT116 or HCT116 p53 KO cells at a ratio of 1:1 (1000 cells/well); the cells were added immediately one after the other, and the formation of spheroids was monitored for 48 hrs. The mixed spheroids of both cell types had similar morphological features. The cell” for “The cell”

[8] = test system: A549 spheroids; assay: Spheroid viability assay (CellTiter-Glo 3D), A549 spheroids; type: cell-based; settings: 72 h, 100 pM to 50 μM
Protocol: as §4, §5

[9] = test system: HCT116 par spheroids; assay: Spheroid viability assay (CellTiter-Glo 3D), HCT116 parental spheroids; type: cell-based; settings: 72 h, 100 pM to 50 μM
Protocol: as §4, §5

[10] = test system: CCRF-CEM; assay: Cytotoxic MTS assay, CCRF-CEM; type: cell-based; settings: human leukemia cell line, 72 h, median of five assays
From the text: as §2, §3

[11] = test system: RAJI; assay: Cytotoxic MTS assay, Raji; type: cell-based; settings: human leukemia cell line, 72 h, median of five assays
From the text: as §2, §3

[12] = test system: A549; assay: Cytotoxic MTS assay, A549 2D; type: cell-based; settings: 72 h, median of five assays
From the text: as §2, §3

[13] = test system: caspase 3; assay: Caspase 3 activity in lysed HCT116 cells from 2D and spheroids; type: cell-based, human; settings: 12 h; for Caspase 3 activity, spheroid culture: HCT116 parental spheroids, 25 µM (cisplatin 15 μM); for Caspase 3 activity, 2D culture: HCT116 parental, 25 µM
Protocol: as §1

[14] = test system: U2OS; assay: Cytotoxic MTS assay, U2OS 2D; type: cell-based; settings: human tumors 2D, 72 h, median of five assays
From the text: as §2, §3

[15] = test system: K562; assay: Cytotoxic MTS assay, K562; type: cell-based; settings: 72 h, median of five assays
From the text: as §2, §3

[16] = test system: BJ LD; assay: Cytotoxic MTS assay, BJ LD fibroblasts (doxorubicin-resistant); type: cell-based; settings: doxorubicin-resistant human fibroblasts, 72 h, median of five assays
From the text: as §2, §3

[17] = test system: RAMOS; assay: Cytotoxic MTS assay, Ramos; type: cell-based; settings: human leukemia cell line, 72 h, median of five assays
From the text: as §2, §3

[18] = test system: U2OS spheroids; assay: Spheroid viability assay (CellTiter-Glo 3D), U2OS spheroids; type: cell-based; settings: human tumors spheroids, 72 h, 100 pM to 50 μM
Protocol: as §4, §5

[19] = test system: caspase 8; assay: Caspase 8 activity in lysed HCT116 cells from 2D and spheroids; type: cell-based, human; settings: HCT116 parental spheroids, 25 µM (cisplatin 15 μM), 12 h
Protocol: as §1

[20] = test system: HCT116 par; assay: Cytotoxic MTS assay, HCT116 parental 2D; type: cell-based; settings: 72 h, median of five assays
From the text: as §2, §3

[21] = test system: normal human leukocytes; set-up: method as in PMID 31449809, PMID 35430982; settings: 0.1 nM to 50 μM in 0.01% DMSO; cited from earlier work
[22] = HCT-116, human tumors spheroids
[23] = MRC5, doxorubicin-resistant human fibroblasts

Row | SMILES | Caspase 9 activity, spheroid culture [1] | Caspase 3 activity, spheroid culture [13] | Caspase 8 activity, spheroid culture [19] | IC50 ([2]; BJ) [µM] | IC50 ([3]; HCT-116, human tumors 2D) [µM] | IC50 [4, 22] [µM] | IC50 ([5]; MRC5, human fibroblasts) [µM] | IC50 [6, 23] [µM] | IC50 ([8]; A549, human tumors spheroids) [µM] | IC50 [9, 22] [µM] | IC50 ([10]; CCRF-CEM) [µM] | IC50 ([11]; Raji) [µM] | IC50 ([12]; A549, human tumors 2D) [µM] | Caspase 3 activity, 2D culture [13] | IC50 ([14]; U2OS) [µM] | IC50 ([15]; K562, human leukemia cell line) [µM] | IC50 ([16]; Fibroblast) [µM] | IC50 ([17]; Ramos) [µM] | IC50 ([18]; U2OS) [µM] | IC50 ([20]; HCT-116, human tumors 2D) [µM] | also measured
1 | N.N.[Cl][Pt][Cl] [Cisplatin, reference compound] | caspase activation was observed | caspase activation was observed | caspase activation was observed |  |  |  |  |  |  |  |  |  |  |  |  |  |  |  |  |  | IC50 [2]: 9.5 µM; IC50 ([3]; human tumors 2D): 8.34 µM; IC50 ([4]; human tumors spheroids): 45.7 µM; IC50 ([5]; human fibroblasts): 3.98 µM; IC50 ([6]; doxorubicin-resistant human fibroblasts): 23.5 µM; IC50 [7]: 26.8 µM; IC50 ([8]; human tumors spheroids): 49.8 µM; IC50 ([9]; human tumors spheroids): 15.9 µM; IC50 [10]: 4.62 µM; IC50 [11]: 0.68 µM; IC50 ([12]; human tumors 2D): 9.51 µM; IC50 [14]: 9.56 µM; IC50 ([15]; human leukemia cell line): 6.98 µM; IC50 [16]: 17.8 µM; IC50 [17]: 0.56 µM; IC50 [18]: 21.8 µM; IC50 ([20]; human tumors 2D): 12.5 µM
2 | C=C1C(=O)C23CCC(C(=C)C)C(C)(CCC(=O)O)C2CCC1C3 (stereo not shown) [Compound 1, Caracasine Acid] | absence of caspase activity | absence of caspase activity | absence of caspase activity | 6.88 | 1.52 | > 50 | 6.48 | 6.69 | > 50 | > 50 | 0.38 | 0.85 | 5.98 | significant changes | 1.79 | 4.77 | 7.04 | 0.62 | > 50 | 1.73 | Effect on primary leukocytes [21]: no significant effect
3 | C=C1C(=O)C23CCC(C(=C)C)C(C)(CCC(=O)OC4CCCCC4)C2CCC1C3 (stereo not shown) [Compound 3, Caracasine Acid Cyclohexyl Ester] | absence of caspase activity | absence of caspase activity | absence of caspase activity | 7.38 | 1.63 | > 50 | 5.45 | 2.69 | > 50 | > 50 | 0.38 | 1.86 | 2.69 | significant changes | 1.66 | 2.21 | 6.5 | 0.78 | > 50 | 1.59 | 
